Among the data in BindingDB's records for doi:10.7270/Q2NV9GP9 (Burnham Center For Chemical Genomics, 2010) are EC50 values, retold here.

By pEC50 is commonly meant the EC50 on a negative log10 scale, so that one unit is a factor of ten. A higher pEC50 goes with a low EC50.

In this assay the target is T1, Apelin receptor (Homo sapiens, UniProt P35414).
T1 sequence (P35414 whole entry): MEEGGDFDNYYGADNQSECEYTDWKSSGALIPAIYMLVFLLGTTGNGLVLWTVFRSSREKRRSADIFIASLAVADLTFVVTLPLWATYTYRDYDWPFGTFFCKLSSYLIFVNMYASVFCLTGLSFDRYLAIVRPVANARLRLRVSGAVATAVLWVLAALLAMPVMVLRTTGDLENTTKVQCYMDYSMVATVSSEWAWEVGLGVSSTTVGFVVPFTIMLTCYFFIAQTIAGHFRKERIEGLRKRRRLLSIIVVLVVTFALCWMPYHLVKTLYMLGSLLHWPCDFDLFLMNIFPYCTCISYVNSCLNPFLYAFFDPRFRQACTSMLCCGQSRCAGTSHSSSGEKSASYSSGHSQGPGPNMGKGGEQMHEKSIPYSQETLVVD
The assay is described as follows: apelin receptor activators, concentration-response – cell-based, luminescence, uHTS hits, dose response (AID 488748).

pEC50: −log10 of the molar value. Where a name gives a salt, the structure may show the parent alone. Where only a bound is given, the exact number is not on record here.

`COc1cc2c(cc1NC(=O)c1cccc([N+](=O)[O-])c1)oc1ccccc12` [SMR000187222] showed a negative-log EC50 (pEC50) of less than 4.00. The compound `Cc1ccc(C=NNC(=O)CSc2nnc(-c3ccccc3)n2-c2ccc(Cl)cc2)o1` [SMR000217660] gave a pEC50 of less than 4.00.

`Cc1ccc(C=NNC(=O)CSc2nnc(-c3ccc(Cl)cc3)n2-c2ccccc2)o1` [SMR000218122]: the pEC50 was less than 4.00. As for `Cc1ccc2nc(NNC(=O)c3ccc(S(=O)(=O)N4CCc5ccccc5C4)cc3)sc2c1` [SMR000235768], the figure is less than 4.00. As for `CC1(OC(=O)C2CCCC2)C(=O)C=C2C=C(c3ccsc3)N(C3CCCC3)C=C2C1=O` (configuration not stated) [SMR000452667], the figure is less than 4.00; as for `O=C(Cn1ncc2c([nH]c3ccccc32)c1=O)Nc1ccc(CN2CCCCC2)cc1` [SMR000629297], less than 4.00; as for `CC1CCN(S(=O)(=O)c2ccc3nc(N4CCN(c5ccccc5)CC4)ccc3c2)CC1` [SMR000630335], less than 4.00. The compound `COc1cc(NC(=S)NC(=O)CCc2ccccc2)cc(OC)c1` [SMR000668635] had a pEC50 of less than 4.00. As for `CN(C)CCCN(C(=O)c1ccc(S(=O)(=O)N2CCc3ccccc3C2)cc1)c1nc2ccc(F)cc2s1` [SMR000807789], the figure is less than 4.00. To `Cc1cccc2sc(N(CCCN(C)C)C(=O)c3ccc(S(=O)(=O)N4CCc5ccccc5C4)cc3)nc12` [SMR000807812] belongs less than 4.00; to `CN(C)CCCN(C(=O)c1ccc(S(=O)(=O)N2CCc3ccccc3C2)cc1)c1nc2c(F)cccc2s1` [SMR000807825], less than 4.00. As for `CN(C)CCCN(C(=O)c1cc2cc([N+](=O)[O-])ccc2s1)c1nc2cc3c(cc2s1)OCCO3` [SMR000807865], the pEC50 is less than 4.00.

Compound `COC(=O)CCCC1=CC2=CC(=O)C(C)(OC(=O)c3cccs3)C(=O)C2=CN1C1CCCCC1` (configuration not stated) [[2-cyclohexyl-3-(4-methoxy-4-oxobutyl)-7-methyl-6,8-dioxoisoquinolin-7-yl] thiophene-2-carboxylate] gave a pEC50 of less than 4.00. In turn, `CCCCC1=CC2=CC(=O)C(C)(OC(=O)C3CCCC3)C(=O)C2=CO1` (configuration not stated) [cyclopentanecarboxylic acid (3-butyl-7-methyl-6,8-dioxo-2-benzopyran-7-yl) ester] gave a pEC50 of less than 4.00.

Compound `CCOC(=O)N1CCN(S(=O)(=O)c2ccc(C(=O)N(CCCN(C)C)c3nc4ccc(Cl)cc4s3)cc2)CC1` [ethyl 4-[4-[(6-chloranyl-1,3-benzothiazol-2-yl)-[3-(dimethylamino)propyl]carbamoyl]phenyl]sulfonylpiperazine-1-carboxylate;hydrochloride] gave a negative logarithm of the EC50 (pEC50) of less than 4.00. To `CCOC(=O)C1C(Cn2cnc3ccccc32)=NC(=O)NC1c1cc(C)ccc1C` (configuration not stated) [ethyl 6-(benzimidazol-1-ylmethyl)-4-(2,5-dimethylphenyl)-2-oxidanylidene-3,4-dihydro-1H-pyrimidine-5-carboxylate] belongs less than 4.00. `COC(=O)C1C(Cn2cnc3ccccc32)=NC(=O)NC1c1cc(C)ccc1C` (configuration not stated) [methyl 6-(benzimidazol-1-ylmethyl)-4-(2,5-dimethylphenyl)-2-oxo-3,4-dihydro-1H-pyrimidine-5-carboxylate] gave a pEC50 of less than 4.00.
